The results in this text go back to patent publication US8053627B2, “Methods for treating demyelination disorders” (University of Chicago, priority 2005, dated 2011).

The subject of experiment [1] is Hippocampal organotypic cultures. Kind of experiment: Hippocampal organotypic cultures (HOC), in vitro model of myelination, MBP Western blot. In kind it is cell-based. The following applies: 7 days of 100 U/ml IFN-γ exposure. As to the method:
HOCs, were prepared and maintained as described previously (Kunkler and Kraig (1997) J Cereb Blood Flow Metab. 17:2643), and were maintained in vitro for 7 days before use. SAL at various concentrations was combined with 100 U/ml IFN-γ and added to the HOC cultures for 7 days. […] After 7 days of 100 U/ml IFN-γ exposure, the levels of MBP decreased approximately 80% in the HOCs (FIG. 29).
Background: Immunoblotting shows a protein as a band on a membrane.

Experiment [2] relates to oligodendrocytes and myelin. Kind of experiment: IFN-γ-overexpressing mice crossed to PLP/SOCS1 mice, clinical and histological evaluation at postnatal day 21. In kind it is in vivo. The following applies: for oligodendrocyte density: corpus callosum, postnatal day 21; for G ratio (axon diameter/fiber diameter ratio): hypomyelination defined as G ratio>0.8. As to the method:
IFN-γ-overexpressing mice were crossed to the PLP/SOCS1 mice in double-transgenic, (MBP/IFN-γ×PLP/SOCS1) and triple-transgenic (GFAP/tTA×TRE/IFN-γ×PLP/SOCS1) mating systems. MBP/IFN-γ×PLP/SOCS1 (172×PLP/SOCS1) mating was performed according to a standard mating protocol. The GFAP/tTA×TRE/IFN-γ×PLP/SOCS1 matings were performed in a 2-step mating process: GFAP/tTA mice were initially crossed to PLP/SOCS1 mice, and double-positive (184×PLP/SOCS1) offspring were then crossed to the TRE/IFN-γ lines 110 and 67, separately. This second mating step was performed according to the previously described “tet-off” protocol. Doxycycline 0.05 mg/ml (Sigma-Aldich) was added to the water of impregnated female mice until embryonic day 14, after which the animals were switched back to normal water, thereby allowing initiation of IFN-γ transcription, which peaks during the postnatal period (Lin et al., 2005).
The litters of the mating systems (F1 generation) were examined daily and sacrificed at postnatal day 21. Clinical evaluation included behavioral observation and challenged ladder walking to elicit tremor. Histological examination included quantitation of the number and density of oligodendrocytes and examination of the myelination patterns. Brain tissue was simultaneously obtained from each animal at the time of sacrifice to verify and measure the expression of IFN-γ and Flag-SOCS1 (see below). The clinical and histological findings were subsequently stratified according to genotype. All animal procedures were conducted in compliance with the National Institutes of Health Guide for Care and Use of Laboratory Animals and were approved by the Institutional Animal Care and Use Committee at The University of Chicago.
Oligodendrocyte cell density was assessed digitally using Axiovision software, at postnatal day 21, as previously described (Lin et al., 2005). The brains were sectioned sagittally through the corpus callosum dividing the brain in two symmetrical halves. Ten frozen sections from each half were prepared at 7 μm thickness, and numbered in the sequence of their preparation. The brains of three animals per study group were prepared in this fashion. Following the CC1 immunostaining the corresponding area of corpus callosum of each section was digitally selected and the corresponding total area obtained. CC1 cell counting was performed manually within the selected areas of each section, and the number of CC1 positive cells per square area (mm^2) calculated. The results were presented as mean±SD of CC1 (+) cells/mm^2 with n=3 animals per study group.
Myelination patterns of the examined animals were assessed at postnatal day 21 by calculating the percent unmyelinated axons and ratio of the axon/fiber diameters (G ratio) with Image J software (National Institutes of Health, Bethesda, Md.) as previously described (Lin at al., 2005). The brains were sectioned sagittally through the corpus callosum dividing the brain in two symmetrical halves. Approximately 2 mm^3 samples from the genu and the splenum of both halves of corpus callosum were obtained using a Wild M3C stereotype microscope. The orientation of the specimen in the resin blocks yielding axonal cross-sections (well seen myelin rings) was chosen, and established by toluedine blue staining of a few sample sections. The resin blocks with the chosen orientation were processed for electron microscope examination. Randomly selected areas were examined and ten representative pictures from both genu and splenum corpus callosum were obtained at 12000× magnification. The number of unmyelinated axons was assessed by manual counting of axons that lacked myelin and were encircled solely by their own plasma membrane. All unmyelinated axons present in the representative images were counted, and their percentage calculated by examining a total of five hundred axons per tissue sample. […]

In the next experiment the test system is corpus callosum. Kind of experiment: Cuprizone remyelination in double transgenic mice on PERK+/+ or PERK+/− background. In kind it is in vivo. The following applies: for remyelinated axons: 9 weeks. The text has this:
The involvement of the ER stress response in the reduction caused by IFN-γ to remyelinate lesions was examined in transgenic mice that were generated to be heterozygous for a loss of function mutation in pancreatic ER kinase (PERK) (Harding, et al., (2001) Mol Cell 7:1153-1163), and to be temporally regulated for expressing INF-γ in the CNS. TRE/IFN-γ mice were first crossed with PERK+/− mice (Harding, et al. (2001) Mol. Cell 7: 1153-1163) on the C57BL/6 background to generate mice the carry the PERK mutation, and the resulting progeny were crossed to GFAP/tTA mice to obtain transgenic mice that were heterozygous for the PERK mutation. The effect of PERK on remyelination in the presence or absence of INF-γ was evaluated as evaluated as a function of the level of meylination of oligodendrocytes in remyelinating lesions and the number of oligodendrocytes present in the remyelinating lesion.
The extent of remyelination was assessed as described in the previous examples in the corpus callosum of PERK+/+ and PERK+/− mice that were made to express INF-γ (DOX−PERK+/+ and DOX−PERK+/−), and in mice in which the expression of INF-γ was repressed (DOX+PERK+/+ and DOX+PERK+/−). Remyelination was determined by electron microscopy, and was related to the number of CC1 positive oligodendrocytes and the level of caspase-3 expression in the corpus callosum of all animals. The level of caspase-3 was determined by immunohistochemical methods using anti capsase antibody (active-casoase-3 antibody, 1:50; Cel Signaling Technology) and according to the method described in Example 1. Demyelination was induced in six-week-old GFAP/tTA; TRE/IFN-γ double transgenic mice on a PERK+/− background that had been maintained on doxycycline, by simultaneously treating the mice with 0.2% cuprizone and releasing them from doxycycline (DOX−PERK+/−). Remyelination was allowed to occur by withdrawing cuprizone at week 6.

With “IFN-γ: pleotropic cytokine secreted by activated T lymphocytes and natural killer cells; delivered to the CNS by transgene or added as recombinant protein”, in experiment [1], the “decrease of MBP levels in the HOCs” value is recorded as “approximately 80%”. This substance returned an Incidence of tremor in experiment [2] (172 × PLP/SOCS1 littermates, ten mice per group) of 0%. In experiment [2] (184/67 system), the oligodendrocytes lost result is on record as “approximately 40%”, the “percentage of unmyelinated axons” value is 57±7%, the oligodendrocyte density is 79±9 CC1 (+) cells/mm^2 and the “G ratio (axon diameter/fiber diameter ratio)” value worked out at 0.95±0.04. In experiment [2] (184/110 system), the oligodendrocytes lost entry is “approximately 20%”, the “percentage of unmyelinated axons” value is recorded as 41%±6, the oligodendrocyte density was 115±8 CC1 (+) cells/mm^2 and the “G ratio (axon diameter/fiber diameter ratio)” value was determined as 0.89±0.02. Besides, in experiment [2] (MBP/IFN-γ and MBP/IFN-γ×PLP/SOCS1 brains), the “MHC class I molecule expression (immunostaining)” value was “upregulated expression”. Moreover, in the experiment on corpus callosum (DOX−PERK+/+), the remyelinated axons is recorded as 31.1%±7.6%. For the same substance, the CC1 positive oligodendrocytes in the experiment with corpus callosum (DOX−PERK+/+, week 9) is reported as 123.2±27.5 /0.04 mm^2. Also, the remyelinated axons with corpus callosum (DOX−PERK+/−) is listed as 15.6%±7.6%. Also, the “caspase-3 positive oligodendrocytes, DOX−PERK+/− relative to DOX−PERK+/+” value in the experiment on corpus callosum (week 9) is given as 2.3 times.
